The text below walks through data of ChEMBL document CHEMBL1147903, “Synthesis and antibacterial activity of oxazolidinones containing triazolyl group” (2007).

In general, MIC refers to the least concentration at which growth counts as inhibited. Usually ED50 stands for the dose at which the effect has come halfway, by size or by number of responders. Read a high ED50 as weaker potency.

Each structure is given as a SMILES string. ≈ marks a conversion by molar mass, not a printed value.

What all share (assay type): functional
The test system of assay [1] is Staphylococcus aureus. In words: Antibacterial activity against methicillin-resistant Staphylococcus aureus by microdilution broth method. In general terms: Broth dilution looks for growth in wells or tubes with falling amounts of substance.
For assay [2], the system named is Staphylococcus aureus. Nature of the assay: Antibacterial activity against methicillin-susceptible Staphylococcus aureus by microdilution broth method.
Assay [3] relates to Streptococcus pneumoniae. Nature of the assay: Antibacterial activity against penicillin-resistant Streptococcus pneumoniae by microdilution broth method.
Assay [4] deals with Enterococcus faecalis. In words: Antibacterial activity against Enterococcus faecalis by microdilution broth method.
For assay [5], the system named is Staphylococcus epidermidis. In words: Antibacterial activity against methicillin-susceptible Staphylococcus epidermidis by microdilution broth method.
The test system of assay [6] is Staphylococcus epidermidis. In words: Antibacterial activity against methicillin-resistant Staphylococcus epidermidis by microdilution broth method.
Assay [7] concerns Staphylococcus aureus. Nature of the assay: Antibacterial activity against methicillin-resistant Staphylococcus aureus BAA-42 infected po dosed KunMing mouse.
The test system of assay [8] is Staphylococcus epidermidis. Nature of the assay: Antibacterial activity against methicillin-resistant Staphylococcus epidermidis 03427 infected po dosed KunMing mouse.
The test system of assay [9] is Staphylococcus aureus. In words: Antibacterial activity against methicillin-susceptible Staphylococcus aureus 04-5 infected po dosed KunMing mouse.

As to `Cc1ccc(S(=O)(=O)N2CCN(c3ccc(N4C[C@H](Cn5ccnn5)OC4=O)cc3F)CC2)cc1`, the MIC in assay [1] was 1 µg/mL (≈ 2 µM); in [2], 1 µg/mL (≈ 2 µM); in [3] it was 1 µg/mL (≈ 2 µM); in assay [4] it was 2 µg/mL (≈ 4 µM); in assay [5], 0.5 µg/mL (≈ 0.999 µM); in [6] it was 2 µg/mL (≈ 4 µM).
In the case of `O=C1O[C@@H](Cn2ccnn2)CN1c1ccc(N2CCN(S(=O)(=O)c3cccs3)CC2)c(F)c1`, the MIC in [1], in [2], in assay [3], in [4], in [5] and in assay [6] was 1 µg/mL (≈ 2.03 µM) in each case.
For `O=C1O[C@@H](Cn2ccnn2)CN1c1ccc(N2CCN(S(=O)(=O)c3ccc(F)cc3F)CC2)c(F)c1`, the MIC is 2 µg/mL (≈ 3.83 µM) in assay [1]; 2 µg/mL (≈ 3.83 µM) in [2]; 2 µg/mL (≈ 3.83 µM) in assay [3]; 2 µg/mL (≈ 3.83 µM) in assay [4]; 1 µg/mL (≈ 1.91 µM) in assay [5]; 1 µg/mL (≈ 1.91 µM) in [6].
For `COc1ccc(S(=O)(=O)N2CCN(c3ccc(N4C[C@H](Cn5ccnn5)OC4=O)cc3F)CC2)cc1`, the MIC in assay [1] was 0.5 µg/mL (≈ 0.968 µM); in [2], 1 µg/mL (≈ 1.94 µM); in assay [3], 0.5 µg/mL (≈ 0.968 µM); in assay [4] it was 2 µg/mL (≈ 3.87 µM); in assay [5], 2 µg/mL (≈ 3.87 µM); in [6] it was 2 µg/mL (≈ 3.87 µM).
Take `O=C1O[C@@H](Cn2ccnn2)CN1c1ccc(N2CCN(S(=O)(=O)c3ccccc3C(F)(F)F)CC2)c(F)c1`: the MIC in [1] was 0.5 µg/mL (≈ 0.902 µM); in [2], 1 µg/mL (≈ 1.8 µM); in assay [3], 0.5 µg/mL (≈ 0.902 µM); in assay [4] it was 2 µg/mL (≈ 3.61 µM); in assay [5] it was 2 µg/mL (≈ 3.61 µM); in [6] it was 2 µg/mL (≈ 3.61 µM).
For `O=C1O[C@@H](Cn2ccnn2)CN1c1ccc(N2CCNCC2)c(F)c1`, the MIC was found to be 1 µg/mL (≈ 2.89 µM) in assay [1]; 1 µg/mL (≈ 2.89 µM) in [2]; 1 µg/mL (≈ 2.89 µM) in [3]; 2 µg/mL (≈ 5.77 µM) in [4]; 1 µg/mL (≈ 2.89 µM) in assay [5]; 1 µg/mL (≈ 2.89 µM) in [6].
Take `O=C1O[C@@H](Cn2ccnn2)CN1c1ccc(N2CCN(S(=O)(=O)c3cccc(C(F)(F)F)c3)CC2)c(F)c1`: the MIC in [1] was 0.06 µg/mL (≈ 0.108 µM); in [2], 0.06 µg/mL (≈ 0.108 µM); in assay [3] it was 0.015 µg/mL (≈ 0.0271 µM); in assay [4] it was 0.03 µg/mL (≈ 0.0541 µM); in assay [5], 0.06 µg/mL (≈ 0.108 µM); in assay [6] it was 0.5 µg/mL (≈ 0.902 µM).
For `O=C1O[C@@H](Cn2ccnn2)CN1c1ccc(N2CCN(S(=O)(=O)c3ccc(C(F)(F)F)cc3)CC2)c(F)c1`, the MIC in assay [1] stood at 1 µg/mL (≈ 1.8 µM); in assay [2] it was 0.5 µg/mL (≈ 0.902 µM); in assay [3], 0.5 µg/mL (≈ 0.902 µM); in [4] it was 0.5 µg/mL (≈ 0.902 µM); in assay [5] it was 0.5 µg/mL (≈ 0.902 µM); in [6], 1 µg/mL (≈ 1.8 µM).
With `O=C1O[C@@H](Cn2ccnn2)CN1c1ccc(N2CCN(S(=O)(=O)c3ccc(Cl)cc3)CC2)c(F)c1`, the MIC in [1] came out at 0.5 µg/mL (≈ 0.96 µM); in assay [2] it was 0.125 µg/mL (≈ 0.24 µM); in assay [3] it was 0.125 µg/mL (≈ 0.24 µM); in [4] it was 0.25 µg/mL (≈ 0.48 µM); in assay [5], 0.5 µg/mL (≈ 0.96 µM); in [6], 0.5 µg/mL (≈ 0.96 µM).
On to `O=C1O[C@@H](Cn2ccnn2)CN1c1ccc(N2CCN(S(=O)(=O)c3cccc(F)c3)CC2)c(F)c1`, for which the minimal inhibitory concentration (MIC) in assay [1] was 0.25 µg/mL (≈ 0.496 µM); in assay [2] it was 0.001 µg/mL (≈ 0.00198 µM); in assay [3], 0.002 µg/mL (≈ 0.00396 µM); in assay [4], 0.004 µg/mL (≈ 0.00793 µM); in assay [5], 0.25 µg/mL (≈ 0.496 µM); in assay [6], 1 µg/mL (≈ 1.98 µM). Also, the ED50 was more than 100 mg/kg in assay [7], more than 100 mg/kg in assay [8] and 55.1 mg/kg in assay [9].
Consider `O=C1O[C@@H](Cn2ccnn2)CN1c1ccc(N2CCN(S(=O)(=O)c3ccc(F)cc3)CC2)c(F)c1`, for which the MIC in [1] amounted to 1 µg/mL (≈ 1.98 µM); in [2] it was 0.5 µg/mL (≈ 0.991 µM); in [3], 0.5 µg/mL (≈ 0.991 µM); in assay [4] it was 1 µg/mL (≈ 1.98 µM); in [5], 0.5 µg/mL (≈ 0.991 µM); in assay [6], 1 µg/mL (≈ 1.98 µM).
In the case of `O=C1O[C@@H](Cn2ccnn2)CN1c1ccc(N2CCN(S(=O)(=O)c3ccc([N+](=O)[O-])cc3)CC2)c(F)c1`, the MIC was 1 µg/mL (≈ 1.88 µM) in assay [1]; 1 µg/mL (≈ 1.88 µM) in assay [2]; 0.5 µg/mL (≈ 0.941 µM) in assay [3]; 1 µg/mL (≈ 1.88 µM) in assay [4]; 1 µg/mL (≈ 1.88 µM) in assay [5]; 1 µg/mL (≈ 1.88 µM) in assay [6].
Take `N#Cc1ccc(S(=O)(=O)N2CCN(c3ccc(N4C[C@H](Cn5ccnn5)OC4=O)cc3F)CC2)cc1`: the MIC in [1] was determined as 0.5 µg/mL (≈ 0.977 µM); in [2], 2 µg/mL (≈ 3.91 µM); in [3], 4 µg/mL (≈ 7.82 µM); in assay [4] it was 4 µg/mL (≈ 7.82 µM); in [5], 2 µg/mL (≈ 3.91 µM); in [6], 2 µg/mL (≈ 3.91 µM).
For the compound `Nc1cccc(S(=O)(=O)N2CCN(c3ccc(N4C[C@H](Cn5ccnn5)OC4=O)cc3F)CC2)c1`, the MIC in [1] was determined as 0.25 µg/mL (≈ 0.498 µM); in assay [2] it was 0.125 µg/mL (≈ 0.249 µM); in assay [3] it was 0.5 µg/mL (≈ 0.997 µM); in assay [4], 0.25 µg/mL (≈ 0.498 µM); in assay [5], 0.5 µg/mL (≈ 0.997 µM); in assay [6], 1 µg/mL (≈ 1.99 µM). Besides, the ED50 in assay [8] and in assay [9] was more than 100 mg/kg throughout.
As for `O=C1O[C@@H](Cn2ccnn2)CN1c1ccc(N2CCN(S(=O)(=O)c3ccccc3)CC2)c(F)c1`, the minimum inhibitory concentration (MIC) in assay [1] turned out to be 1 µg/mL (≈ 2.06 µM); in assay [2], 1 µg/mL (≈ 2.06 µM); in [3], 1 µg/mL (≈ 2.06 µM); in [4], 2 µg/mL (≈ 4.11 µM); in assay [5] it was 0.5 µg/mL (≈ 1.03 µM); in assay [6] it was 2 µg/mL (≈ 4.11 µM).
Turning to `O=C1O[C@@H](Cn2ccnn2)CN1c1ccc(N2CCN(S(=O)(=O)c3ccc(Br)cc3)CC2)c(F)c1`, the MIC is 8 µg/mL (≈ 14.1 µM) in assay [1]; 4 µg/mL (≈ 7.07 µM) in assay [2]; 2 µg/mL (≈ 3.54 µM) in [3]; 2 µg/mL (≈ 3.54 µM) in [4]; 8 µg/mL (≈ 14.1 µM) in assay [5]; 4 µg/mL (≈ 7.07 µM) in assay [6].
As to `O=C1O[C@@H](Cn2ccnn2)CN1c1ccc(N2CCN(S(=O)(=O)c3cccc([N+](=O)[O-])c3)CC2)c(F)c1`, the MIC was 0.06 µg/mL (≈ 0.113 µM) in assay [1]; 0.06 µg/mL (≈ 0.113 µM) in assay [2]; 0.015 µg/mL (≈ 0.0282 µM) in [3]; 0.03 µg/mL (≈ 0.0564 µM) in [4]; 0.06 µg/mL (≈ 0.113 µM) in assay [5]; 0.5 µg/mL (≈ 0.941 µM) in assay [6]. The results for the ED50 in [7], in [8] and in assay [9] were more than 100 mg/kg, 84.3 mg/kg and 55.1 mg/kg, respectively.
As for `O=C(OCc1ccccc1)N1CCN(c2ccc(N3C[C@H](Cn4ccnn4)OC3=O)cc2F)CC1`, the MIC is 0.5 µg/mL (≈ 1.04 µM) in assay [1]; 0.25 µg/mL (≈ 0.52 µM) in assay [2]; 0.5 µg/mL (≈ 1.04 µM) in assay [3]; 0.5 µg/mL (≈ 1.04 µM) in [4]; 1 µg/mL (≈ 2.08 µM) in assay [5]; 0.5 µg/mL (≈ 1.04 µM) in [6].
Turning to `O=C1O[C@@H](Cn2ccnn2)CN1c1ccc(N2CCN(S(=O)(=O)c3ccccc3[N+](=O)[O-])CC2)c(F)c1`, the MIC turned out to be 1 µg/mL (≈ 1.88 µM) in [1]; 0.5 µg/mL (≈ 0.941 µM) in assay [2]; 0.5 µg/mL (≈ 0.941 µM) in assay [3]; 0.5 µg/mL (≈ 0.941 µM) in [4]; 0.5 µg/mL (≈ 0.941 µM) in assay [5]; 1 µg/mL (≈ 1.88 µM) in assay [6].
Regarding `CC(=O)NC[C@H]1CN(c2ccc(N3CCOCC3)c(F)c2)C(=O)O1` [LINEZOLID], the MIC was 1 µg/mL (≈ 2.96 µM) in assay [1]; 0.125 µg/mL (≈ 0.371 µM) in assay [2]; 0.25 µg/mL (≈ 0.741 µM) in [3]; 0.25 µg/mL (≈ 0.741 µM) in assay [4]; 1 µg/mL (≈ 2.96 µM) in assay [5]; 0.5 µg/mL (≈ 1.48 µM) in assay [6]. Further, the ED50 in [7] stood at 17.9 mg/kg; in [8] it was 84.8 mg/kg; in assay [9], 24 mg/kg.
In the case of `CN[C@H](CC(C)C)C(=O)N[C@H]1C(=O)N[C@@H](CC(N)=O)C(=O)N[C@H]2C(=O)N[C@H]3C(=O)N[C@H](C(=O)N[C@H](C(=O)O)c4cc(O)cc(O)c4-c4cc3ccc4O)[C@H](O)c3ccc(c(Cl)c3)Oc3cc2cc(c3O[C@@H]2O[C@H](CO)[C@@H](O)[C@H](O)[C@H]2O[C@H]2C[C@](C)(N)[C@H](O)[C@H](C)O2)Oc2ccc(cc2Cl)[C@H]1O` [VANCOMYCIN], the MIC in assay [2] stood at 0.25 µg/mL (≈ 0.173 µM); in assay [3] it was 0.25 µg/mL (≈ 0.173 µM); in assay [4], 0.25 µg/mL (≈ 0.173 µM); in assay [5], 0.5 µg/mL (≈ 0.345 µM); in [6], 0.25 µg/mL (≈ 0.173 µM).
